From patent publication US20180282323A1, “Mesoionic imidazole derivatives as insecticides” (BAYER CROPSCIENCE AKTIENGESELLSCHAFT, priority 2015, published 2018)

Legend:
[1] = log P by HPLC on reversed-phase column (EEC directive 79/831 Annex V.A8); type: physicochemical; conditions: for log p: HPLC on reversed-phase column (footnote a); for log p a): HPLC on reversed-phase column
Method: a) The determination of the [M+H]^+ by LC-MS in the acidic range was effected at pH 2.7, with acetonitrile (containing 0.1% formic acid) and water as eluents; linear gradient from 10% acetonitrile to 95% acetonitrile, instrument: Agilent 1100 LC system, Agilent MSD system, HTS PAL.
The log P values reported in the tables and preparation examples above were determined in accordance with EEC directive 79/831 Annex V.A8 by HPLC (High Performance Liquid Chromatography) using a reversed-phase column (C18). Temperature 43° C.

Myzus persicae = Myzus persicae oral test; type: in vivo; conditions: application rate 20 ppm, oral uptake through parafilm, after 5 days
Method: Myzus persicae—Oral Test Solvent: 100 parts by weight of acetone
To produce an appropriate active ingredient formulation, 1 part by weight of active ingredient is dissolved with the stated parts by weight of solvent and made up with water until the desired concentration is attained.
50 μl of the active ingredient formulation are transferred into microtitre plates and made up to a final volume of 200 μl with 150 μl of IPL41 insect medium (33%+15% sugar). Subsequently, the plates are sealed with parafilm, which a mixed population of green peach aphids (Myzus persicae) within a second microtitre plate is able to puncture and imbibe the solution through it.
After 5 days, the efficacy in % is determined. 100% means that all the aphids have been killed; 0% means that no aphids have been killed.

Structure (SMILES) | log p [1] | efficacy (Myzus persicae) [%] | log p a) [1]
O=C(COc1cccnc1)c1c([O-])n(Cc2ccc(Cl)nc2)c2cccc[n+]12 [Example I-1-006] | 0.93 | 100 | –
O=C(Nc1ccccc1Cl)c1c([O-])n(Cc2cnc(Cl)s2)c2cccc[n+]12 [Example I-1-234] | – | 100 | 3.29
COC(=O)c1c([O-])n(Cc2ccc(Cl)nc2)c2ccc(F)c[n+]12 [Example I-1-155] | 1.43 | 100 | –
COc1ccc(NC(=O)c2c([O-])n(C(C)c3ccc(Cl)nc3)c3cccc[n+]23)cc1 (stereo not shown) [Example I-1-237] | – | 90 | 2.66
O=C(CCl)c1c([O-])n(Cc2ccc(Cl)nc2)c2cccc[n+]12 [Example I-1-001] | 1.62 | 100 | –
Cc1ccc[n+]2c(C(=O)NC3CC3)c([O-])n(C(C)c3ccc(Cl)nc3)c12 (racemic) [Example I-1-257] | – | 100 | 1.52
CCOCC(=O)c1c([O-])n(Cc2cncc(Cl)c2)c2cccc[n+]12 [Example I-1-177] | 1.37 | 100 | –
CC(c1ccc(Cl)nc1)n1c([O-])c(C(=O)NCC(F)(F)F)[n+]2ccccc12 (stereo not shown) [Example I-1-241] | – | 100 | 2.2
O=C(NC1CC1)c1c([O-])n(Cc2ccc(Cl)nc2)c2ccc(F)c[n+]12 [Example I-1-170] | 1.79 | 100 | –
O=C(NC1CCCC1)c1c([O-])n(Cc2cnc(Cl)s2)c2cccc[n+]12 [Example I-1-138] | 2.35 | 100 | –
N#Cc1ccn(CC(=O)c2c([O-])n(Cc3cnc(Cl)s3)c3cccc[n+]23)n1 [Example I-1-047] | 1.83 | 100 | –
CC(c1ccc(Cl)nc1)n1c([O-])c(C(=O)Nc2ccccc2)[n+]2ccccc12 (stereo not shown) [Example I-1-229] | – | 100 | 2.8
CSc1ccn(CC(=O)c2c([O-])n(Cc3cnc(Cl)s3)c3cccc[n+]23)n1 [Example I-1-052] | 1.94 | 100 | –
O=C(COCc1ccccc1)c1c([O-])n(Cc2cncnc2)c2cccc[n+]12 [Example I-1-059] | 1.44 | 100 | –
Cc1ccc[n+]2c(C(=O)NCC(C)C)c([O-])n(Cc3ccc(Cl)nc3)c12 [Example I-1-191] | 2.33 | 90 | –
Cc1cccc2n(Cc3ccc(Cl)nc3)c([O-])c(C(=O)Cn3cccn3)[n+]12 [Example I-1-103] | 1.47 | 100 | –
CCOCC(=O)c1c([O-])n(Cc2ccc(C(F)(F)F)nc2)c2cccc[n+]12 [Example I-1-188] | 1.72 | 100 | –
Cc1ccc[n+]2c(C(=O)NC3CC3)c([O-])n(C(C)c3ccc(Cl)nc3)c12 (racemic) [Example I-1-259] | – | 90 | 1.96
O=C(NC1CC1)c1c([O-])n(Cc2cncc(Cl)c2)c2cccc[n+]12 [Example I-1-195] | 1.52 | 90 | –
Cc1ccc[n+]2c(C(=O)Nc3c(F)cccc3F)c([O-])n(Cc3cnc(Cl)s3)c12 [Example I-1-212] | – | 100 | 2.73
N#Cc1cnn(CC(=O)c2c([O-])n(Cc3cncnc3)c3cccc[n+]23)c1 [Example I-1-065] | 0.73 | 100 | –
CC(c1ccc(Cl)nc1)n1c([O-])c(C(=O)NC2(C#N)CC2)[n+]2ccccc12 (stereo not shown) [Example I-1-271] | – | 100 | 1.69
O=C(Cn1cnc(C(F)(F)F)c1)c1c([O-])n(Cc2cnc(Cl)s2)c2cccc[n+]12 [Example I-1-051] | 2 | 100 | –
CC(C)[S+]([O-])CC(=O)c1c([O-])n(Cc2cnc(Cl)s2)c2cccc[n+]12 (stereo not shown) [Example I-1-038] | 1.32 | 100 | –

Structure (SMILES) | log p [1] | efficacy (Myzus persicae) [%] | log p a) [1]
Cc1cc[n+]2c(C(=O)CCl)c([O-])n(Cc3cnc(Cl)s3)c2c1 [Example I-1-126] | 1.96 | 90 | –
CCOCC(=O)c1c([O-])n(Cc2ccc(Cl)nc2)c2c(C)ccc[n+]12 [Example I-1-182] | 1.6 | 100 | –
CCCNC(=O)c1c([O-])n(C(C)c2ccc(Cl)nc2)c2cccc[n+]12 (stereo not shown) [Example I-1-249] | – | 100 | 2.02
O=C(Cn1ccc(C(F)(F)F)n1)c1c([O-])n(Cc2cnc(Cl)s2)c2cccc[n+]12 [Example I-1-057] | 2.44 | 90 | –
COc1ccc(NC(=O)c2c([O-])n(Cc3cnc(Cl)s3)c3c(C)ccc[n+]23)cc1 [Example I-1-208] | – | 100 | 2.91
COC(=O)c1c([O-])n(C(C)c2ccc(Cl)nc2)c2cccc[n+]12 (stereo not shown) [Example I-1-198] | – | 100 | 1.32
Cc1cccc2n(Cc3cnc(Cl)s3)c([O-])c(C(=O)NC3CC3)[n+]12 [Example I-1-190] | 1.16 | 100 | –
COCC(=O)c1c([O-])n(Cc2ccc(Cl)nc2)c2c(F)ccc[n+]12 [Example I-1-205] | – | 100 | 1.44
Cn1nccc1NC(=O)c1c([O-])n(Cc2cnc(Cl)s2)c2cccc[n+]12 [Example I-1-330] | – | – | 1.6
COC(=O)c1c([O-])n(Cc2ccc(Cl)nc2)c2cc(C(F)(F)F)cc[n+]12 [Example I-1-132] | 1.93 | – | –
COC(=O)c1c([O-])n(Cc2ccc(Cl)nc2)c2c(OC(F)(F)F)ccc[n+]12 [Example I-1-189] | 1.84 | – | –
O=C(NCCc1ccc(Cl)cc1)c1c([O-])n(Cc2cnc(Cl)s2)c2cccc[n+]12 [Example I-1-139] | 3 | – | –
O=C(Nc1ncns1)c1c([O-])n(Cc2cnc(Cl)s2)c2cccc[n+]12 [Example I-1-338] | – | – | 1.98
COc1cc(NC(=O)c2c([O-])n(Cc3ccc(Cl)nc3)c3cccc[n+]23)ccn1 [Example I-1-329] | – | – | 1.41
CNCC(=O)c1c([O-])n(Cc2cnc(Cl)s2)c2cccc[n+]12 [Example I-1-058] | 0.31 | – | –
Cc1ccc2n(Cc3ccc(Cl)nc3)c([O-])c(C(=O)Cn3cccn3)[n+]2c1 [Example I-1-104] | 1.63 | – | –
COC(=O)c1c([O-])n(Cc2ccc(Cl)nc2)c2c(C)ccc[n+]12 [Example I-1-183] | 1.66 | – | –
O=C(CCl)c1c([O-])n(Cc2ccc(Cl)nc2)c2cc(C(F)(F)F)cc[n+]12 [Example I-1-063] | 2.52 | – | –
Cc1ccc[n+]2c(C(=O)NCC3CCCC3)c([O-])n(Cc3ccc(Cl)nc3)c12 [Example I-1-256] | – | – | 2.8
CSc1ccc[n+]2c(C(=O)NC3CC3)c([O-])n(Cc3ccc(Cl)nc3)c12 [Example I-1-204] | – | – | 2.05
O=C(Nc1cccc(OC(F)(F)F)c1)c1c([O-])n(Cc2ccc(Cl)nc2)c2cccc[n+]12 [Example I-1-298] | – | – | 3.55
O=C(Cn1cccn1)c1c([O-])n(Cc2ccc(Cl)nc2)c2cc(C(F)(F)F)cc[n+]12 [Example I-1-102] | 2.08 | – | –
O=C(Nc1c(Cl)ncnc1Cl)c1c([O-])n(Cc2cnc(Cl)s2)c2cccc[n+]12 [Example I-1-331] | – | – | 2.17
